Measurements as given in patent publication US20120245344A1 (NIPPON CHEMIPHAR CO., LTD., priority 2009, published 2012).

Each compound was assayed against T1, human GPR119 (Homo sapiens, UniProt Q8TDV5) (assay: Measurement of intracellular cAMP in stable cell line expressing human GPR119 (GPR119 agonist effect)). Details: increase of intracellular cAMP, Flp-in T-Rex-293 cells expressing human GPR119, 37° C. for 30 minutes.
T1 construct: expressed in transfected cells; host or cells: Flp-in T-Rex-293 cells (Invitrogen #R78007), plasmid pcDNA5/FRT/TO, expression induced with tetracycline
T1 sequence (Q8TDV5 1-335): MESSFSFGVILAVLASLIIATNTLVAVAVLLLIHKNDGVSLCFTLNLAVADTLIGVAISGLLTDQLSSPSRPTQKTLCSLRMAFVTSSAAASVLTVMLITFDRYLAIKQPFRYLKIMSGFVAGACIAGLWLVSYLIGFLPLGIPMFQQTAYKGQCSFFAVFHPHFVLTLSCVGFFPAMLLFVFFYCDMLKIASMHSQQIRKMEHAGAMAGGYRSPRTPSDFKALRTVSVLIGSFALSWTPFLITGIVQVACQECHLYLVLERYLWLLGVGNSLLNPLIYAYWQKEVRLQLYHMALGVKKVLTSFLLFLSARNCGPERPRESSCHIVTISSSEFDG
Format: cell-based
Text: The GPR119 agonist effect is studied by measuring the effect of an analyte on increase of intracellular amount of cAMP in human GPR119 introduced cells. The testing method is described below.
Human GPR119 gene (NM 178471) is purchased from ATCC (ATCC No. 10807349), and is amplyfied according to PCR to form BamHI site at 5′ side and Apa I site at 3′ side. The primers are […] (sequence No. 1) and […] (sequence No. 2). The PCR conditions are described below.
The double-stranded DNA is thermally denatured using a DNA polymerase (KOD-Plus-Ver. 2; TOYOBO #KOD-211) at 98° C. for 10 seconds in one cycle. The denatured single-stranded DNA is annealed with the primers at 55° C. for 30 seconds. The DNA is subjected to an extension reaction at 68° C. for 1 minute and 15 seconds. The above-mentioned steps are repeated in 35 cycles. The PCR product is inserted into pcDNA5/FRT/TO (Invitrogen #V6520-20) plasmid. Flp-in T-Rex-293 cells (Invitorogen #R78007) are transfected with the obtained plasmid. The method of transfection is conducted in accordance with the protocol of the product.
(§1) The stable cell line expressing human GPR119 prepared in the above-mentioned method is plated on a 96-well plate at the concentration of 2,500 cells/well using Dulbecco's Modified Eagle Medium (DMEM) containing 10% fetal bovine serum (FBS). Twenty-four hours after plating, tetracyclin (Invitrogen #Q10019) is added at the final concentration of 20 ng/mL to induce hGPR119 gene expression. Twenty-four hours after, the medium is removed, and the cells are stimulated with an assay buffer (0.5 mM IBMX PBS (−)) containing the test compound at 37° C. for 30 minutes. The amount of the intracellular cAMP is measured using a commercially available kit (HitHunter™ cAMP XS+Assay: GE Healthcare #90007503) and a reader (FLUOstar Optima: BMG LABTECH). The test compound is dissolved in 100% DMSO, and added at the final concentration of 1%.
Human GPR119 gene (NM 178471) was purchased from ATCC (ATCC No. 10807349), and is amplyfied according to PCR to form BamHI site at 5′ side and Apa I site at 3′ side. The primers were […] (sequence No. 1) and […] (sequence No. 2). The PCR conditions are described below. The double-stranded DNA was thermally denatured using a DNA polymerase (KOD-Plus-Ver. 2; TOYOBO #KOD-211) at 98° C. for 10 seconds in one cycle. The denatured single-stranded DNA was annealed with the primers at 55° C. for 30 seconds. The DNA was subjected to an extension reaction at 68° C. for 1 minute and 15 seconds. The above-mentioned steps were repeated in 35 cycles. The PCR product was inserted into pcDNA5/FRT/TO (Invitrogen #V6520-20) plasmid. Flp-in T-Rex-293 cells (Invitorogen #R78007) were transfected with the obtained plasmid. The method of transfection was conducted in accordance with the protocol of the product.
as §1, with “method was” for “method is”, “#Q10019) was” for “#Q10019) is”, “medium was” for “medium is”, “cells were” for “cells are”, “cAMP was” for “cAMP is”, “compound was” for “compound is”
The examination was performed by the method similar to Example 87 Pharmacological experiment 1-(1), -(2).

Compound	EC50 [µM]
Cc1cc(C2CCN(C(=O)OC(C)C)CC2)cnc1Cn1ccc2cc(-n3cncn3)ccc21 [Example 59, Isopropyl 4-[3-methyl-2-[5-(1,2,4-triazol-1-yl)indol-1-ylmethyl]pyridin-5-yl]piperidine-1-carboxylate]	0.104
Cc1cc(S(C)(=O)=O)cc2ccn(Cc3ccc(C4CCN(C(=O)OC(C)(C)C)CC4)cn3)c12 [Example 26, tert-Butyl 4-[2-(5-methanesulfonyl-7-methylindol-1-ylmethyl)pyridin-5-yl]piperidine-1-carboxylate]	0.0593
CC(C)(C)OC(=O)N1CCC(c2ccc(-c3cc4cc(S(C)(=O)=O)ccc4o3)nc2)CC1 [Example 9, tert-Butyl 4-[2-(5-methanesulfonylbenzofuran-2-yl)pyridin-5-yl]piperidine-1-carboxylate]	0.42
CC1CN(C(=O)OC(C)(C)C)CC=C1c1ccc(Cn2ccc3c(F)c(S(C)(=O)=O)c(F)cc32)nc1 (centres unmarked) [Example 62, tert-Butyl 4-[2-(4,6-difluoro-5-methanesulfonylindol-1-ylmethyl)pyridin-5-yl]-3-methyl-3,6-dihydro-2H-pyridine-1-carboxylate]	0.0652
CC(C)(C)OC(=O)N1CC=C(c2ccc(Cn3ccc4cc(S(C)(=O)=O)ccc43)nc2)C(C)(C)C1 [Example 45, tert-Butyl 3,3-dimethyl-4-[2-(5-methanesulfonylindol-1-ylmethyl)pyridin-5-yl]-3,6-dihydro-2H-pyridine-1-carboxylate]	0.186
Cc1nc(S(C)(=O)=O)cc2ccn(Cc3ccc(C4CCN(C(=O)OC(C)(C)C)CC4)cn3)c12 [Example 28, tert-Butyl 4-[2-(5-methanesulfonyl-7-methyl-1H-pyrrolo[2,3-c]pyridin-1-ylmethyl)pyridin-5-yl]piperidine-1-carboxylate]	0.0821
COC(=O)c1ccc2c(ccn2Cc2ncc(C3CCN(C(=O)OC(C)(C)C)CC3)cc2F)c1 [Example 71, tert-Butyl 4-[3-fluoro-2-[5-(methoxycarbonyl)indol-1-ylmethyl)pyridin-5-yl]piperidine-1-carboxylate]	0.191
CC(C)(C)OC(=O)N1CCC(c2ccc(Cn3ncc4cc(S(C)(=O)=O)ccc43)nc2)CC1 [Example 21, tert-Butyl 4-[2-(5-methanesulfonylindazol-1-ylmethyl)pyridin-5-yl]piperidine-1-carboxylate]	0.428
CC(C)(C)OC(=O)N1CCC(c2ccc(Cn3ccc4cc(S(C)(=O)=O)ccc43)nc2)C(C)(C)C1 (centres unmarked) [Example 46, tert-Butyl 3,3-dimethyl-4-[2-(5-methanesulfonylindol-1-ylmethyl)pyridin-5-yl]piperidine-1-carboxylate]	0.111

The next lines start with the values.

EC50 [µM]	Compound
0.0104	CC(C)OC(=O)N1CCC(c2cnc(Cn3ccc4cc(-n5cnnn5)cc(F)c43)c(F)c2)CC1 [Example 83, Isopropyl 4-[3-fluoro-2-[7-fluoro-5-(tetrazol-1-yl)indol-1-ylmethyl]pyridin-5-yl]piperidine-1-carboxylate]
0.0135	CC1CN(C(=O)OC(C)(C)C)CCC1c1ccc(Cn2ccc3cc(S(C)(=O)=O)ccc32)nc1 (centres unmarked) [Example 44, tert-Butyl 4-[2-(5-methanesulfonylindol-1-ylmethyl)pyridin-5-yl]-3-methylpiperidine-1-carboxylate]
0.0214	CC(C)(C)OC(=O)N1CCC(c2ccc(Cn3ccc4cc(S(C)(=O)=O)cc(F)c43)nc2)CC1 [Example 11, tert-Butyl 4-[2-(7-fluoro-5-methanesulfonylindol-1-ylmethyl)pyridin-5-yl]piperidine-1-carboxylate]
0.0202	CC(C)(C)OC(=O)N1CCC(c2ccc(CN3CCc4cc(S(C)(=O)=O)cc(F)c43)nc2)CC1 [Example 25, tert-Butyl 4-[2-(7-fluoro-5-methanesulfonylindolin-1-ylmethyl)pyridin-5-yl]piperidine-1-carboxylate]
0.0411	CC(C)(C)OC(=O)N1CCC(c2ccc(Cn3ccc4cc(S(C)(=O)=O)c(Cl)cc43)nc2)CC1 [Example 31, tert-Butyl 4-[2-(6-chloro-5-methanesulfonylindol-1-ylmethyl)pyridin-5-yl]piperidine-1-carboxylate]
0.0107	CC(C)(C)OC(=O)N1CCC(c2ccc(Cn3ccc4cc(S(C)(=O)=O)c(F)c(F)c43)nc2)CC1 [Example 55, tert-Butyl 4-[2-(6,7-difluoro-5-methanesulfonylindol-1-ylmethyl)pyridin-5-yl]piperidine-1-carboxylate]
0.0587	CC1CN(C(=O)OC(C)(C)C)CC=C1c1ccc(Cn2ccc3cc(S(C)(=O)=O)ccc32)nc1 (centres unmarked) [Example 43, tert-Butyl 4-[2-(5-methanesulfonylindol-1-ylmethyl)pyridin-5-yl]-3-methyl-3,6-dihydro-2H-pyridine-1-carboxylate]
0.0316	Cc1cc(C2CCN(C(=O)OC(C)(C)C)CC2)cnc1Cn1ccc2cc(S(C)(=O)=O)ccc21 [Example 5, tert-Butyl 4-[2-(5-methanesulfonylindol-1-ylmethyl)-3-methylpyridin-5-yl]piperidine-1-carboxylate]
0.0174	CC(C)(C)OC(=O)N1CCC(c2ccc(Cn3ccc4c(F)c(S(C)(=O)=O)c(F)cc43)nc2)CC1 [Example 57, tert-Butyl 4-[2-(4,6-difluoro-5-methanesulfonylindol-1-ylmethyl)pyridin-5-yl]piperidine-1-carboxylate]
0.039	CC(C)(C)OC(=O)N1CCC(c2ccc(Cn3ccc4cc(S(C)(=O)=O)ncc43)nc2)CC1 [Example 29, tert-Butyl 4-[2-(5-methanesulfonyl-1H-pyrrolo[2,3-c]pyridin-1-ylmethyl)pyridin-5-yl]piperidine-1-carboxylate]
0.0304	CC(C)(C)OC(=O)N1CCC(c2ccc(Cn3ccc4cc(S(C)(=O)=O)cnc43)nc2)CC1 [Example 17, tert-Butyl 4-[2-(5-methanesulfonyl-1H-pyrrolo[2,3-b]pyridin-1-ylmethyl)pyridin-5-yl]piperidine-1-carboxylate]
0.0491	CC(C)c1nc(N2CCC(c3ccc(Cn4ccc5cc(S(C)(=O)=O)ccc54)nc3)CC2)no1 [Example 16, 5-Isopropyl-3-[4-[2-(5-methanesulfonylindol-1-ylmethyl)pyridin-5-yl]piperidin-1-yl]-[1,2,4]oxadiazole]
0.0262	CC(C)(C)OC(=O)N1CCC(c2ccc(Cn3ccc4cc(-n5cncn5)ccc43)nc2)CC1 [Example 56, tert-Butyl 4-[2-[5-(1,2,4-triazol-1-yl)indol-1-ylmethyl]pyridin-5-yl]piperidine-1-carboxylate]

Same assay, conditions: statement in words on Tables 10 to 13

GPR119 agonist effect (in words)	Compound
excellent GPR119 agonist effect	CC(C)OC(=O)N1CCC(c2cnc(Cn3ccc4cc(-n5cnnn5)cc(F)c43)c(F)c2)CC1 [Example 83, Isopropyl 4-[3-fluoro-2-[7-fluoro-5-(tetrazol-1-yl)indol-1-ylmethyl]pyridin-5-yl]piperidine-1-carboxylate]
